Measured values from article PMC12430278, “A Simple and Reliable Method for the Determination of Isorhapontigenin in Murine Biological Matrices: Application in a Tissue Distribution Study” (Molecules, 2025).
Where two headings read alike, the source gives them in different places.

Experiments:
[1] = Stability of ISO in plasma samples under various storage conditions; assay type: in vitro ADME; settings: mouse plasma, read-out: Remaining (%, Mean ± SD)
Text: (§1) In bioanalysis, analyte stability in biological matrices is crucial for ensuring accurate and reliable quantification. Instability can result in degradation or transformation during sample collection, storage, or processing, potentially compromising data integrity and study outcomes. Therefore, the stability of ISO in plasma was thoroughly evaluated under various storage conditions (Table 5). Assessing ISO stability in intact tissues is challenging, as replicating the native tissue environment is difficult. Accordingly, only short-term stability (6 h on ice) was assessed in tissue homogenates (Table 6). For post-preparative stability, hepatic homogenate—the most complex matrix—was selected as a representative.
For the cleanup of plasma samples, three volumes of acetonitrile (containing IS at 400 ng/mL) were added to one volume of murine plasma to precipitate proteins. After vortexing for 20 s, the samples were centrifuged at 1503× g for 10 min at 4 °C. The supernatant was carefully transferred to a glass insert preloaded in an autosampler vial. During each HPLC analysis, 10 μL of supernatant was injected into the HPLC system. The minimum plasma volume required per analysis was 25 μL.
(§2) The stability of ISO was evaluated under various storage conditions. Stock solution stability was assessed after storage at room temperature (25 °C) and –20 °C. The stability of ISO in plasma was examined under the following conditions: short-term storage (25 °C for 24 h), long-term storage (–80 °C for 52 days), three freeze–thaw cycles, and post-preparative stability (samples kept in an autosampler at 4 °C for more than 24 h). As it is difficult to evaluate ISO stability directly in tissues, only the short-term stability in tissue homogenates was assessed (6 h on ice). Similarly, post-preparative stability in processed tissue samples was assessed using liver homogenate as a representative, due to the complexity of the hepatic matrix. Stability was considered acceptable if 85–115% of the initial ISO concentration remained.

[2] = Stability of ISO in tissue homogenates; assay type: in vitro ADME; settings: mouse; for remaining at 6 h, 45 ng/mL / remaining at 6 h, 1600 ng/mL: read-out: Stability Remaining (%, Mean ± SD) Short-Term Stability (6 h on Ice)
Text: as §1
For tissue samples, namely brain, fat, heart, small intestine, large intestine, kidney, liver, lung, muscle, spleen, and stomach, approximately 35 mg of each tissue was weighed and finely minced with scissors. The samples were homogenized in a 0.2% ascorbic acid solution (freshly prepared daily) in 50% methanol (v/v) at a ratio of 1:5 (w/v) for up to three cycles using a high-throughput tissue homogenizer (Wonbio-L, Wonbio, Shanghai, China) operating at 60 Hz for 60 s per cycle. Subsequently, three volumes of acetonitrile (containing IS at 400 ng/mL) were added to one volume of tissue homogenate. Following vigorous vortexing, the samples were centrifuged at 1902× g for 10 min at 15 °C. The clear supernatant was carefully transferred into an HPLC vial.
as §2

[3] = Biodistribution study in mice following oral administration; assay type: in vivo, C57BL/6 mice
Protocol: Following oral administration of ISO at a dose of 200 µmol/kg (equivalent to 51.7 mg/kg), three to four mice (n = 3 or 4) were euthanized at each predetermined time point (5, 10, 20, 40, 60, and 80 min), and biological samples were collected. ISO concentrations were quantified using our validated HPLC-UV method. Exposure levels (AUC) in plasma and other individual biological matrices were calculated based on the mean concentrations at each time point.
Specific pathogen-free C57BL/6 mice (male; 6–8 weeks old; weight: 18–21 g) were purchased through Shenzhen Glorybay Biotech Co. (Shenzhen, China). The animals had ad libitum access to food and water prior to dosing. ISO was administered as an aqueous suspension (vehicle: 0.3% sodium carboxymethylcellulose with 0.2% L-ascorbic acid; ISO concentration: 5 mg/mL) via oral gavage at a dose of 200 µmol/kg (equivalent to 51.7 mg/kg, dosing volume: 10.34 mL/kg). At each predetermined time point (5, 10, 20, 40, 60 and 80 min) three to four mice (n = 3 or 4) were euthanized through cervical dislocation. Blood samples were collected into heparinized centrifuge tubes and centrifuged to obtain plasma. Following blood collection, the mice were dissected, and major organs/tissues—including the brain, abdominal fat, heart, small intestine, large intestine, kidney, liver, lung, abdominal muscle, spleen, and stomach—were harvested. The organs and tissues were cut into small pieces and rinsed with isotonic saline before being blotted dry. All collected biological samples were placed on dry ice. At the end of the in vivo study, all samples were stored at –80 °C in a deep freezer until HPLC analysis.
Non-compartmental pharmacokinetic analysis was performed using WinNonlin Standard Version 1.0 (Scientific Consulting Inc., Apex, NC, USA). Plasma and tissue exposure, expressed as the area under the concentration–time curve (AUC), was calculated using the mean values of the individual mice.

[4] = cited from earlier work
[5] = mice, oral; cited from earlier work
[6] = set-up: method as in PMID 39456808; settings: Sprague Dawley rats, two weeks daily oral 100 µmol/kg/day; cited from earlier work
[7] = tested on: primary airway epithelial cells isolated from patients with chronic obstructive pulmonary disease (COPD); set-up: method as in PMID 28369685; settings: RES as comparator; cited from earlier work
[8] = enzymatic-hydrolysis approach; cited from earlier work

SMILES: COc1cc(/C=C/c2cc(O)cc(O)c2)ccc1O [ISO, trans-3,5,4′-trihydroxy-3′-methoxystilbene]
- remaining at 45 ng/mL ([1]; 45.0 ng/mL, after three freeze and thaw cycles): 101 ± 4.4%
- remaining at 1248 h, 45 ng/mL ([1]; 45.0 ng/mL, long term-stability (−80 °C for 52 days)): 102 ± 1.9%
- remaining at 24 h, 45 ng/mL ([1]; 45.0 ng/mL, post-preparative stability (autosampler at 4 °C for at least 24 h)): 102 ± 2.7%
- remaining at 24 h, 45 ng/mL ([1]; 45.0 ng/mL, short-term stability (24 h at room temperature)): 102 ± 3.7%
- remaining at 1600 ng/mL ([1]; 1600 ng/mL, after three freeze and thaw cycles): 105 ± 1.1%
- remaining at 1248 h, 1600 ng/mL ([1]; 1600 ng/mL, long term-stability (−80 °C for 52 days)): 106 ± 2.1%
- remaining at 24 h, 1600 ng/mL ([1]; 1600 ng/mL, post-preparative stability (autosampler at 4 °C for at least 24 h)): 101.7 ± 1%
- remaining at 24 h, 1600 ng/mL ([1]; 1600 ng/mL, short-term stability (24 h at room temperature)): 101.7 ± 0.9%
- remaining at 6 h, 45 ng/mL ([2]; brain homogenate, 45.0 ng/mL): 101 ± 2.1%
- remaining at 6 h, 1600 ng/mL ([2]; brain homogenate, 1600 ng/mL): 95.9 ± 1.7%
- remaining at 6 h, 45 ng/mL ([2]; fat homogenate, 45.0 ng/mL): 101 ± 4.4%
- remaining at 6 h, 1600 ng/mL ([2]; fat homogenate, 1600 ng/mL): 96.8 ± 2.5%
- remaining at 6 h, 45 ng/mL ([2]; heart homogenate, 45.0 ng/mL): 93.8 ± 3.4%
- remaining at 6 h, 1600 ng/mL ([2]; heart homogenate, 1600 ng/mL): 106 ± 2%
- remaining at 6 h, 45 ng/mL ([2]; kidney homogenate, 45.0 ng/mL): 96.8 ± 2.6%
- remaining at 6 h, 1600 ng/mL ([2]; kidney homogenate, 1600 ng/mL): 97.4 ± 2.8%
- remaining at 6 h, 45 ng/mL ([2]; large intestine homogenate, 45.0 ng/mL): 92.6 ± 2.9%
- remaining at 6 h, 1600 ng/mL ([2]; large intestine homogenate, 1600 ng/mL): 90.3 ± 3.6%
- remaining at 24 h, 45 ng/mL ([2]; liver homogenate, 45.0 ng/mL, read-out: Stability Remaining (%, Mean ± SD) Post-Preparative Stability (More Than 24 h at 4 °C)): 105 ± 2.2%
- remaining at 6 h, 45 ng/mL ([2]; liver homogenate, 45.0 ng/mL): 103 ± 2.1%
- remaining at 24 h, 1600 ng/mL ([2]; liver homogenate, 1600 ng/mL, read-out: Stability Remaining (%, Mean ± SD) Post-Preparative Stability (More Than 24 h at 4 °C)): 94.9 ± 1%
- remaining at 6 h, 1600 ng/mL ([2]; liver homogenate, 1600 ng/mL): 97.8 ± 1.2%
- remaining at 6 h, 45 ng/mL ([2]; lung homogenate, 45.0 ng/mL): 97.3 ± 4%
- remaining at 6 h, 1600 ng/mL ([2]; lung homogenate, 1600 ng/mL): 101 ± 1.7%
- remaining at 6 h, 45 ng/mL ([2]; muscle homogenate, 45.0 ng/mL): 102 ± 5.5%
- remaining at 6 h, 1600 ng/mL ([2]; muscle homogenate, 1600 ng/mL): 95 ± 2.5%
- remaining at 6 h, 45 ng/mL ([2]; small intestine homogenate, 45.0 ng/mL): 91.8 ± 4.8%
- remaining at 6 h, 1600 ng/mL ([2]; small intestine homogenate, 1600 ng/mL): 92.9 ± 3.8%
- remaining at 6 h, 45 ng/mL ([2]; spleen homogenate, 45.0 ng/mL): 92.7 ± 6%
- remaining at 6 h, 1600 ng/mL ([2]; spleen homogenate, 1600 ng/mL): 94.3 ± 4.3%
- remaining at 6 h, 45 ng/mL ([2]; stomach homogenate, 45.0 ng/mL): 95 ± 2.9%
- remaining at 6 h, 1600 ng/mL ([2]; stomach homogenate, 1600 ng/mL): 97.2 ± 2.2%
- Time at which mean concentrations in plasma and multiple tissues peak ([3]; oral suspension, 200 µmol/kg (51.7 mg/kg)): 10 min
- Exposure (AUC) ranking across plasma and tissues ([3]; oral, 200 µmol/kg (51.7 mg/kg), AUC from mean concentrations, 5-80 min): stomach > small intestine > liver > large intestine > plasma > kidney > heart > spleen > lung > muscle
- Penetration into brain and fat ([3]; oral, 200 µmol/kg, brain and fat samples, quantifiable levels printed as ≥75 ng/mL): only a few reached quantifiable levels
- Detectability of ISO in the kidney, liver, and heart over time ([3]; oral, 200 µmol/kg, kidney, liver, heart): undetectable in some mice as early as 20 min
- Detectability of ISO in the lung and muscle over time ([3]; oral, 200 µmol/kg, lung, muscle): detectable in the lung and muscle mainly between 10 and 20 min
- Quantifiability of ISO in plasma over time ([3]; oral, 200 µmol/kg, plasma): unquantifiable in one out of four mice by 40 min
- Change in oral bioavailability after one-week repeated dosing ([4]; one-week repeated dosing): did not result in any significant changes
- Absolute oral bioavailability ([4]; rats, oral): 20–30%
- Time of peak plasma concentrations post-dosing ([4]; rats, oral): ≤ 15 min
- Time of peak plasma concentrations post-dosing [5]: ≤ 15 min
- Blood cholesterol levels [6]: healthier blood cholesterol levels
- Body weight gain [6]: less body weight gain
- Toxicity [6]: no significant toxicity was observed
- Anti-COPD activity compared with RES [7]: stronger anti-COPD activity than RES
- Glucuronidation [8]: extensive glucuronidation
- Sulfation [8]: not detected
